This note sets out measurements from US10350204B2, “Methods for treating cognitive deficits associated with fragile X syndrome” (Wisconsin Alumni Research Foundation, priority 2015, dated 2019).

The subject of data set [1] is Fmr1 KO mice. Kind of data set: Novel location test (NLT). In kind it is in vivo, mouse. To be noted: for spatial memory deficits in the novel location test, long-term effect: tested at 24 weeks old. As for the experimental part:
(§1) All animal procedures were performed according to protocols approved by the University of Wisconsin-Madison Care and Use Committee. All mice were on C57B/L6 genetic background. The Fmr1 KO/Nestin-GFP mice (Fmr1−/y::Nestin-GFP) were created by crossing female Fmr1 heterozygous KO mice (Fmr1+/−) (59) with homozygous Nestin-GFP transgenic males (60). Generation of FMRP inducible conditional mutant mice (Fmr1loxP/y::Nestin-CreERT2::Rosa26-tdt) and tamoxifen injections to induce recombination were performed as described (12). To induce recombination, mice (6-weeks old) received Tamoxifen (Sigma-Aldrich) daily for 5 d (160 mg/kg) as described (12). Nutlin-3 (10 mg/kg) was given to 7-8 week-old mice or 20-week old mice through IP injections every other day for 5 injections and sacrificed at either 24 hours, 4 weeks, 12, or 20 weeks after the last injection. For NSC differentiation analysis, mice also received four BrdU injections (100 mg/kg) between day 2 and 3 of Nutlin-3 injections. To induce recombination in FMRP inducible conditional mutant mice (Fmr1^loxP/y::Nestin-CreER^T2::Rosa26-tdt) mice, mice 6-weeks old male mice received Tamoxifen (Sigma-Aldrich) daily for 5 days (160 mg kg-1 i.p., 30 mg ml^−1 in 10% ethanol mixed with sunflower oil, SigmaAldrich) based on a published procedure (13). BrdU (Sigma-Aldrich, B5002) was made in a concentration of 20 mg/mL in PBS. Nutlin-3 (Nt3, Cayman Chemical, 10004372) was made in a concentration of 100 mg/mL in dimethyl sulfoxide (DMSO).
This test measures spatial memory through an evaluation of the ability of mice to recognize the new location of a familiar object with respect to spatial cues. The experimental procedure was performed as previously described (65). The mice were exposed to 2 identical objects for 6 minutes during the acquisition phase 3 times and tested at 3 minutes later. Object preference was evaluated during this session. During the trial session, one of the objects was moved to a novel location, and the mice were allowed to explore the objects for 6 minutes, and the total time spent exploring each object was measured. Exploration was considered as any investigative behavior (i.e., head orientation, sniffing occurring within <1.0 cm) or deliberate contact occurring with each object. The discrimination index was calculated as the percentage of time spent investigating the object in the new location minus the percentage of time spent investigating the object in the old location: discrimination index=(Novel Location exploration time/total exploration time×100)−(old Location exploration time/total exploration time×100). All experiments were videotaped and scored by scientists who were blinded to experimental conditions.

Data set [2] is described as follows: Open field activity test. It is filed as in vivo, mouse. As to conditions: wildtype and Fmr1 KO mice; Nutlin-3 10 mg/kg, 5 injections. As for the experimental part: as §1, with “To induce recombination in FMRP inducible conditional mutant mice (Fmr1^loxP/y::Nestin-CreER^T2::Rosa26-tdt) mice, mice 6-weeks old male mice received Tamoxifen (Sigma-Aldrich) daily for 5 days (160 mg kg-1 i.p., 30 mg ml^−1 in 10% ethanol mixed with sunflower oil, SigmaAldrich) based on a published procedure (13). BrdU (Sigma-Aldrich, B5002) was made in a concentration of 20 mg/mL in PBS. Nutlin-3 (Nt3, Cayman Chemical, 10004372) was made in a concentration of 100 mg/mL in dimethyl sulfoxide (DMSO).” left out
Mice were subjected to open field testing for evaluation of locomotor activity and general anxiety. Activity was recorded at 10-min intervals for total 30 min by means of a computer-operated tracking system (Omnitech Electronics Inc, USA) Total distance moved, and ratio of entry time into the Centre and periphery of arena were measured.

Data set [3] is described as follows: Overall health and body weight of treated mice. In kind it is in vivo, mouse. To be noted: wildtype and Fmr1 KO mice; Nutlin-3 10 mg/kg, 5 injections. As for the experimental part: as §1, with “Nutlin-3 (Nt3, Cayman Chemical, 10004372) was made in a concentration of 100 mg/mL in dimethyl sulfoxide (DMSO).” left out
The subject of data set [4] is Fmr1 KO and wildtype NPCs. Kind of data set: BrdU proliferation assay of cultured NPCs. It is filed as cell-based, mouse.
Method: We used only early passage cells (between passage 4 and 10) and only the same passage numbers of wildtype and Fmr1 KO cells. For each experiment, triplicate wells of cells were analyzed, and results were averaged as one data point (n=1). At least 3 independent biological replicates were used (n=3) for statistical analyses.
We used only early passage cells (between passage 4 and 10) and only the same passage numbers of wild type (WT) and Fmr1 KO cells. For each experiment, triplicate wells of cells were analyzed, and results were averaged as one data point (n=1). At least 3 independent experiments (n=3) were performed and used for statistical analyses for each analysis. To study cell proliferation, we dissociated neural stem cells with trypsin and plated them on poly-L-ornithine and laminin-coated 24 well plate (Scientific fisher, 87721) at a density of 100,000 cells per well in proliferation medium. At 20 h post-plating, 5 μM 5-bromo-2.′-deoxyuridine (BrdU, Sigma-Aldrich) was added into the culture medium for 6 h. NPCs were then washed with PBS and fixed with 4% paraformaldehyde for 30 min at room temperature, followed by immunohistochemical analysis. To detect BrdU incorporation, fixed cells were pretreated with 1M HCl for 30 min at 37° C., and then washed with borate buffer, pH 8.5, for 30 min. We then followed our standard immunohistochemistry protocol^10. BrdU incorporation assay was determined using an Operetta high content imaging system (PerkinElmer, Inc) and Harmony quantification software (PerkinElmer, Inc). The percentage of proliferating cells was defined as the number of BrdU-labeled cells divided by total DAPI-positive cells.
For proliferation assay in vitro, 1 μM MK2206 (Selleckchem, S1078) (AKT phosphorylation inhibitor), or 2 μM Nutlin-3 (Nt3, Selleckchem, 51061) (Mdm2 inhibitor), or 1 μM RG7112 (Selleckchem, S7030) (Mdm2 inhibitor) or YH239-EE (Selleckchem 57489) (4 μM) (Mdm2 inhibitor) was added to proliferating NPCs at 6 hours post-plating. Cells were then pulse labeled 18 hours later with 5 μM 5-bromo-2′-deoxyuridine (BrdU, Sigma-Aldrich, B5002) and incubated for 6 hours in the presence of inhibitor, followed by fixation, staining, and quantification.
Data set [5] has as its system NSCs of Fmr1 KO and wildtype mice. Kind of data set: In vivo cell fate analysis of BrdU+ cells (NeuN, S100β). Also on record: species or system mouse. To be noted: 10 mg/kg, 5 injections, analyzed 4 weeks after last treatment. As for the experimental part:
as §1
Brain tissue processing and histological analysis of mouse brains were performed as described in our publications (11, 12, 61). Briefly mice were euthanized by IP injection of sodium pentobarbital and then transcardially perfused with saline followed by 4% PFA. Brains were dissected out, post-fixed overnight in 4% PFA, and equilibrated in 30% sucrose. 40 μm brain sections were generated using a sliding microtome and stored as floating sections in cryoprotectant solution (glycerol, ethylene glycol, and 0.1M phosphate buffer, pH 7.4, 1:1:2 by volume). We performed immunohistological analysis on 1-in-6 serial floating brain sections (240 μm apart). […]
Phenotypic analysis of tdT+ cells was performed as described 3,4. Briefly, at least 50 tdT+ cells in the DG were randomly selected, and their colocalization with cell-lineage markers (e.g., double labeling with GFAP) was determined using Nikon A1 confocal microscope and quantified using Image J software (NIH). […] Briefly, at least 50 BrdU+ cells in the DG were randomly selected, and the colocalization of BrdU with cell-lineage markers (NeuN or S100β) was determined using Nikon A1 confocal microscope and quantified using Image J software (NIH). […]

Data set [6] deals with Fmr1 KO and wildtype NPCs. Kind of data set: Differentiation assay of cultured NPCs (Tuj1 neurons, GFAP astrocytes). It is filed as cell-based, mouse. As to conditions: 4 days.
Method: NPCs were isolated from the dentate gyms of 8 to 10-week-old male Fmr1 KO mice and wild-type (wildtype) littermate controls based on our published methods (12, 64). Independently isolated cells serve as biological replicates. Proliferation and differentiation of NPCs was analyzed as described (11, 12, 61). We used only early passage cells (between passage 4 and 10) and only the same passage numbers of wildtype and Fmr1 KO cells. For each experiment, triplicate wells of cells were analyzed, and results were averaged as one data point (n=1). At least 3 independent biological replicates were used (n=3) for statistical analyses.
Proliferation and differentiation of aNPCs were analyzed using our published methods (Guo et al., Nature Med. (2011); Guo et al., Neuron 70, 924-938 (2011); Luo et al., PLoS Genet 6 (2010); Liu et al., Cell Stem Cell 6 (2010)). We used only early passage cells (between passage 4 and 10) and only the same passage numbers of wild type (WT) and Fmr1 KO cells. For each experiment, triplicate wells of cells were analyzed, and results were averaged as one data point (n=1). At least 3 independent experiments (n=3) were performed and used for statistical analyses for each analysis. […] For the differentiation assay, at 24 h post-plating, cells were changed into differentiation medium, Neurobasal A, containing 5 μM forskolin (Sigma-Aldrich, F-6886) and 1 μM retinoic acid (Sigma-Aldrich, R-2625) for 4 d, followed by fixation with 4% paraformaldehyde for 30 min, and then washed with Dulbecco's Phosphate Buffered Saline (DPBS), pH 7.4 for 30 min. Immunocytochemistry staining was carried out as described (Guo et al., Nature Med. (2011); Guo et al., Neuron 70, 924-938 (2011); Luo et al., PLoS Genet 6 (2010); Liu et al., Cell Stem Cell 6 (2010)). Briefly, cells were preblocked using DPBS containing 5% normal goat serum (VECTOR, S-1000) and 0.1% Triton X-100 for 30 min, followed by overnight incubation with primary antibodies: mouse anti-Tuj1 (1:1000, Promega, G712A) and rabbit anti-S100β (1:1000, Dako, Z0334).
After washing with Dulbecco s Phosphate Buffered Saline (DPBS), cells were incubated with secondary antibodies that included goat anti-mouse 568 (1:1000, Invitrogen, A11031), goat anti-rabbit 488 (1:1000, Invitrogen, A11008) followed by counterstaining with the fluorescent nuclear dye 4′,6-diamidino-2′-phenylindole dihydrochloride (DAPI, Sigma-Aldrich, B2261). […] (VECTOR, H-1000), the numbers of Tuj1, GFAP-positive cells were quantified using an Olympus BX51 microscope equipped with a MicroFire digital camera (Optronics) and a motorized stage using a 20× objective lens. The quantification was carried out using an unbiased stereology method with assistance from StereoInvestigator software (MBF Biosciences). The percentage of differentiated cells was calculated as the number of Tuj1- or GFAP-labeled cells divided by the total number of cells stained with DAPI.
[7] abbreviates: wildtype NPCs, 1 μM MK2206, 2 μM Nutlin-3.
[8] abbreviates: Fmr1 KO NPCs, 1 μM MK2206, 2 μM Nutlin-3, 1 μM RG7112.

As to `COc1ccc(C2=N[C@@H](c3ccc(Cl)cc3)[C@@H](c3ccc(Cl)cc3)N2C(=O)N2CCNC(=O)C2)c(OC(C)C)c1` [Nutlin-3], the “spatial memory deficits in the novel location test, long-term effect” value in data set [1] (Fmr1 KO mice treated at 8 weeks old) and in data set [1] (Fmr1 conditional KO mice treated at 8 weeks old) was “long-term effects to fully rescue spatial memory deficits” in each case. Besides, the “spatial memory deficits in the novel location test” value in data set [1] (Fmr1 KO mice treated at 20 weeks old (middle aged), 24-weeks-old at test) is “fully rescued spatial memory deficits”. Moreover, the “performance on the novel location test (discrimination index)” value in data set [1] (Fmr1 KO mice, treated as young adults, tested 4 weeks later) is reported as “rescued performance”; in data set [1] (wildtype mice, tested 4 weeks after treatment), “no significant effect on wildtype mice”. Further, the “locomotor activity and anxiety (total distance, center/periphery entry ratio)” value in data set [2] is reported as “no significant effect”. Moreover, in data set [3], the “overall health and body weight” value was “no significant effect on overall health and body weight”. For the same compound, the “cell proliferation (BrdU+ cells)” value in data set [4] (Fmr1 KO NPCs, 1 μM MK2206, 2 μM Nutlin-3, 1 μM RG7112, 4 μM YH239-EE) is “reduced the proliferation”; in data set [4] (setting [7]), “without a significant effect on wildtype NPCs”. In addition, the “astroglial differentiation (S100β+ among BrdU+ cells)” value in data set [5] (Fmr1 KO mice) is “rescued both neuronal and astroglial differentiation”; in data set [5] (wildtype mice) it was “without any significant effect on wildtype mice”. Also, the “neuronal differentiation (NeuN+ among BrdU+ cells)” value was “rescued both neuronal and astroglial differentiation” in data set [5] (Fmr1 KO mice); “without any significant effect on wildtype mice” in data set [5] (wildtype mice). Moreover, the “astroglial differentiation (GFAP+)” value was “specifically rescued astroglial differentiation phenotypes” in data set [6] (setting [8]) and “without a significant effect on wildtype NPCs” in data set [6] (setting [7]). For the same compound, the “neuronal differentiation (Tuj1+)” value was “rescued neuronal differentiation phenotypes” in data set [6] (setting [8]) and “without a significant effect on wildtype NPCs” in data set [6] (setting [7]).
